Several values for one entry are separate records, joined by “and”; a condition that tells them apart may be missing. Identical values can stand only once. Each block holds one compound with its values, some of them ahead of it.
Test: solvent given as SMILES
[1] = in O=P(c1ccccc1)(c1ccccc1)c1ccccc1Oc1ccccc1P(=O)(c1ccccc1)c1ccccc1

Structure (SMILES): CC(C)(C)c1ccc(-n2c(-c3ccc(-c4ccc(N(c5ccccc5)c5ccccc5)cc4)s3)nc3c4ccccc4c4ccccc4c32)cc1
emission maximum (in ClCCl): 419 nm

Structure (SMILES): ClP1(Cl)=NP(Cl)(Cl)=NP(Cl)(Oc2ccc3ccc4cccc5ccc2c3c45)=N1 (stereo not given)
emission maximum (in ClCCl): 417 nm

Structure (SMILES): CN(C)c1ccc(-c2nc3c(c4c2-c2ccccc2CC4)-c2ccccc2CC3)cc1
emission maximum (in C1CCOC1): 452 nm | emission maximum (in CC#N): 463 nm | emission maximum (in CCCCCC): 422 nm | emission maximum (in CCOC(C)=O): 449 nm | emission maximum (in CO): 460 nm | emission maximum (in CS(C)=O): 470 nm | emission maximum (in Cc1ccccc1): 436 nm | emission maximum (in ClCCl): 449 nm

Structure (SMILES): CCCCCCNC(=O)c1sc(-c2ccc(-c3cc(-c4ccc(C(C)(C)C)cc4)c(C(=O)NCCCCCC)s3)s2)cc1-c1ccc(C(C)(C)C)cc1
emission maximum (in ClCCl): 448 nm

Structure (SMILES): CN(C)c1ccc(/C=C/c2ccc([N+](=O)[O-])c(O)c2)cc1
emission maximum (in C1CCCCC1): 529 nm | emission maximum (in C1COCCO1): 633 nm | emission maximum (in CCCCCCC): 523 nm | emission maximum (in Cc1ccccc1): 605 nm

Structure (SMILES): CC1=CC(C)=[N+]2C1=C(c1ccc(N(C)C)cc1)c1c(C)cc(C)n1[B-]2(F)F
emission maximum (in C1CCOC1): 513 nm | emission maximum (in CC#N): 508 nm | emission maximum (in CC(=O)C(C)(C)C): 511 nm | emission maximum (in CC(C)=O): 510 nm | emission maximum (in CCCCCC): 511 nm | emission maximum (in CCOC(C)=O): 510 nm | emission maximum (in CO): 514 nm and 511 nm

Structure (SMILES): CCOC(=O)CN1C(=O)C2=C(c3ccc(N4CCCCC4)cc3)N(CC(=O)OCC)C(=O)C2=C1c1ccc(N2CCCCC2)cc1
emission maximum (in CC#N): 590 nm | emission maximum (in CS(C)=O): 603 nm | emission maximum (in Cc1ccccc1): 575 nm

Structure (SMILES): F[B-]1(F)n2c(c3cc4ccccc4cc3c2-c2ccccc2)C=C2c3cc4ccccc4cc3C(c3ccccc3)=[N+]21
emission maximum (in C1CCOC1): 782 nm | emission maximum (in CN(C)C=O): 788 nm | emission maximum (in ClCCl): 785 nm | emission maximum (in c1ccccc1): 785 nm

Structure (SMILES): CCCCCCCCCCc1cc(-c2cc(CCCCCCCCCC)c(-c3cccs3)s2)sc1-c1cccs1
emission maximum (in CCCCCCCCCCCCCC): 481 nm

Structure (SMILES): O=[N+]([O-])c1ccc(NCCN(Cc2c3ccccc3cc3ccccc23)c2ccc([N+](=O)[O-])cc2[N+](=O)[O-])c([N+](=O)[O-])c1
emission maximum (in C1CCCCC1): 419 nm | emission maximum (in C1CCOC1): 416 nm | emission maximum (in CC#N): 389 nm | emission maximum (in CC(C)=O): 388 nm | emission maximum (in CCO): 388 nm | emission maximum (in CN(C)C=O): 409 nm | emission maximum (in CO): 389 nm | emission maximum (in ClC(Cl)Cl): 417 nm

Structure (SMILES): COc1ccc2c(=O)c3c([nH]c2c1)-c1cc(Cl)ccc1NC3(C)C
emission maximum (in C1CCOC1): 489 nm | emission maximum (in CC#N): 512 nm | emission maximum (in CCCCO): 525 nm | emission maximum (in CCCO): 525 nm | emission maximum (in CCO): 525 nm | emission maximum (in CCOC(C)=O): 497 nm | emission maximum (in CN(C)C=O): 509 nm | emission maximum (in CO): 532 nm | emission maximum (in CS(C)=O): 511 nm | emission maximum (in Cc1ccccc1): 477 nm | emission maximum (in ClC(Cl)(Cl)Cl): 469 nm | emission maximum (in ClCCl): 491 nm | emission maximum (in O): 555 nm | emission maximum (in c1ccccc1): 478 nm

Structure (SMILES): Cc1cc(C)c(B2c3cc(C(C)(C)C)cc4ccc5ccc6cc(C(C)(C)C)cc2c6c5c34)c(C)c1
emission maximum (in C1CCCCC1): 430 nm

Structure (SMILES): C(#Cc1cccc2cc(-c3ccccc3)c3cc(-c4cc[b-]5c(c4)c(-c4ccccc4)cc4cccc(C#Cc6ccccc6)[n+]54)cc[b-]3[n+]12)c1ccccc1
emission maximum (in C1CCCCC1): 630 nm

Structure (SMILES): c1ccc2c(-c3ccc4sc5ccc(-c6c7ccccc7cc7ccccc67)cc5c4c3)c3ccccc3cc2c1
emission maximum (in C1CCCCC1): 399.14 nm | emission maximum (in CC#N): 402.78 nm | emission maximum (in ClCCl): 408.25 nm

Structure (SMILES): CCCCc1ccc(-n2c3c(c4c2c2c(n4-c4ccc(CCCC)cc4)-c4ccc(C(F)(F)F)cc4NB2c2ccccc2)B(c2ccccc2)Nc2cc(C(F)(F)F)ccc2-3)cc1
emission maximum (in Cc1ccccc1): 413 nm

Structure (SMILES): COc1ccc(-c2ccc3c(c2)c2cc(-c4ccc(OC)cc4)ccc2n3-c2ccc(C(=O)c3ccc4sc5ccccc5c4c3)cn2)cc1
emission maximum (in Cc1ccccc1): 479.23 nm | emission maximum (in c1cc(-n2c3ccccc3c3ccccc32)cc(-n2c3ccccc3c3ccccc32)c1): 484 nm

Structure (SMILES): c1ccc(-c2nc(-c3cc(-n4c5ccccc5c5ccccc54)cc(-n4c5ccccc5c5ccccc54)c3)nc(-c3cc(-n4c5ccccc5c5ccccc54)cc(-n4c5ccccc5c5ccccc54)c3)n2)cc1
emission maximum (in C1CCCCC1): 438.78 nm | emission maximum (in C1CCOC1): 595.92 nm | emission maximum (in Cc1ccccc1): 504.9 nm

Structure (SMILES): CCCCN(CCCC)c1ccc2c#cc3cc4c#cc5ccc(C(F)(F)F)cc5c#cc#cc5cc(N(CCCC)CCCC)ccc5c#cc4cc3c#cc3ccc(C(F)(F)F)cc3c#cc#cc2c1
emission maximum (in ClCCl): 555 nm | emission maximum (in c1ccccc1): 521 nm

Structure (SMILES): O=S(=O)(c1ccc(N(c2ccccc2)c2ccccc2)cc1)c1ccc(N(c2ccccc2)c2ccccc2)cc1
emission maximum (in Cc1ccccc1): 402 nm | emission maximum [1]: 421 nm

Structure (SMILES): CC(C)c1cccc(C(C)C)c1N1C(=O)c2ccc3c(-c4ccccc4)c4c5ccc6c7c(ccc(c(-c8ccccc8)c4c4ccc(c2c34)C1=O)c75)C(=O)N(c1c(C(C)C)cccc1C(C)C)C6=O
emission maximum (in ClCCl): 702 nm

Structure (SMILES): CC1(C)c2ccccc2N(c2ccc(-c3nc(-c4ccccc4)cc(-c4ccccc4)n3)cc2)c2ccccc21
emission maximum (in Cc1ccccc1): 454.83 nm

Structure (SMILES): Cc1cc(-c2nc(-c3ccccc3)nc(-c3ccccc3)n2)ccc1-c1ccc2c(c1)C1(c3ccccc3-c3ccccc31)c1ccccc1N2c1ccccc1
emission maximum (in c1cc(-c2cccc(-n3c4ccccc4c4ccccc43)c2)cc(-n2c3ccccc3c3ccccc32)c1): 450 nm

Structure (SMILES): CCCCCCc1ccsc1-c1ccc(-c2sc(C(=O)O)cc2CCCCCC)s1
emission maximum (in CC(C)=O): 468 nm | emission maximum (in CCCCCC): 458 nm | emission maximum (in CCO): 451 nm | emission maximum (in CO): 451 nm | emission maximum (in ClCCl): 479 nm | emission maximum (in O): 490 nm

Structure (SMILES): CCc1ccc(-c2nc(-c3ccc(-n4c5ccccc5c5ccccc54)cc3)cc(-c3ccc(-n4c5ccccc5c5ccccc54)cc3)n2)cc1
emission maximum (in C1CCOC1): 436 nm | emission maximum (in CN(C)C=O): 482 nm | emission maximum (in Cc1ccccc1): 402 nm | emission maximum (in ClC(Cl)Cl): 435 nm

Structure (SMILES): CC(C)(C)c1ccc2c(c1)c1cc(C(C)(C)C)ccc1n2-c1cccc(-c2nc(-c3cccc(P(=O)(c4ccccc4)c4ccccc4)c3)nc(-c3cccc(P(=O)(c4ccccc4)c4ccccc4)c3)n2)c1
emission maximum (in C1CCOC1): 511.91 nm | emission maximum (in CC#N): 581.72 nm | emission maximum (in CC(C)=O): 554.6 nm | emission maximum (in CN(C)C=O): 567.81 nm | emission maximum (in Cc1ccccc1): 480.78 nm | emission maximum (in ClC(Cl)Cl): 512.5 nm | emission maximum (in ClCCl): 535.02 nm | emission maximum [1]: 484 nm

Structure (SMILES): COc1ccccc1C1=C2C(C)=CC(C)=[N+]2[B-](F)(F)n2c(C)cc(C)c21
emission maximum (in C1CCOC1): 516 nm | emission maximum (in CC#N): 512 nm | emission maximum (in CC(=O)C(C)(C)C): 514 nm | emission maximum (in CC(C)=O): 513 nm | emission maximum (in CCCCCC): 516 nm | emission maximum (in CCOC(C)=O): 514 nm | emission maximum (in CO): 514 nm

Structure (SMILES): CN(C)c1ccc(N(C)C)cc1
emission maximum (in C1CCCCC1): 394.48 nm

Structure (SMILES): CC1(C)C(/C=C2\C(=O)C(/C=C3\Nc4ccccc4C3(C)C)=C2[O-])=[NH+]c2ccccc21
emission maximum (in ClC(Cl)Cl): 670 nm

Structure (SMILES): CC1(C)c2cc(/C=C/c3nc(/C=C/c4ccc5c(c4)C(C)(C)c4cc(N(c6ccccc6)c6ccc7ccccc7c6)ccc4-5)nc(/C=C/c4ccc5c(c4)C(C)(C)c4cc(N(c6ccccc6)c6ccc7ccccc7c6)ccc4-5)n3)ccc2-c2ccc(N(c3ccccc3)c3ccc4ccccc4c3)cc21
emission maximum (in C1CCOC1): 440 nm

Other lines, results leading:

emission maximum (in ClC(Cl)Cl): 612 nm
Structure (SMILES): COc1ccc(-c2oc3cccc4c5c(-c6ccc(OC)cc6)/c(=N/S(=O)(=O)C(F)(F)F)oc6cccc(c2c34)c65)cc1

emission maximum (in ClCCl): 442 nm
Structure (SMILES): c1ccc(-c2cc3cc4cccc5c(-c6ccccc6)cc6cc7cccc2c7c3c6c45)cc1

emission maximum (in CS(C)=O): 534 nm | emission maximum (in ClCCl): 498 nm
Structure (SMILES): Nc1ccc2c(c1)oc(=O)c1c(=O)oc3ccccc3c12

emission maximum (in CC#N): 473 nm
Structure (SMILES): O=C(O)c1ccc(-c2nc(-c3ccccc3)c3c4ccccc4ccn23)cc1

emission maximum (in CC#N): 346 nm | emission maximum (in CO): 348 nm
Structure (SMILES): CN1c2ccccc2CCc2ccccc21

emission maximum (in ClC(Cl)Cl): 433 nm
Structure (SMILES): O=C1CC(c2ccc(C(F)(F)F)cc2)c2c(c3ccccc3c3nc4ccccc4nc23)O1 (stereo not given)

emission maximum (in ClC(Cl)Cl): 488 nm
Structure (SMILES): CN(C)c1ccc(-c2ccc(-c3ncc4ccccn34)cc2)cc1

emission maximum (in CC#N): 480 nm | emission maximum (in CO): 498 nm | emission maximum (in ClCCl): 477 nm
Structure (SMILES): O=C1c2ccccc2-c2c(-c3ccccc3O)[nH]c(=O)n21

emission maximum (in ClC(Cl)Cl): 696 nm
Structure (SMILES): COc1ccc(N(c2ccc(OC)cc2)c2ccc(-c3ccc(C=C(C#N)C#N)o3)cc2)cc1

emission maximum (in ClCCl): 389 nm
Structure (SMILES): C[SiH]1c2ccccc2-c2cc3c(cc21)-c1ccccc1[SiH]3C (stereo not given)

emission maximum (in CCO): 585 nm | emission maximum (in ClCCl): 585 nm | emission maximum (in O): 587 nm
Structure (SMILES): Oc1c(-c2cccs2)cccc1-c1nc2ccccc2s1

emission maximum (in C1CCOC1): 442 nm
Structure (SMILES): N#Cc1c(N2CCCCC2)cc(-c2cccc3ccccc23)c2c1-c1ccccc1C2

emission maximum (in CCCCCC): 615 nm | emission maximum (in CCCCCCCCO): 621 nm | emission maximum (in CCOC(C)=O): 616 nm | emission maximum (in CN(C)C=O): 623 nm | emission maximum (in ClCCl): 628 nm
Structure (SMILES): CC1=CC(C)=[N+]2C1=Cc1c3ccccc3c(C#Cc3ccsc3)n1[B-]2(F)F

emission maximum (in O): 590 nm
Structure (SMILES): CC[n+]1c(-c2ccccc2)c2cc(N)ccc2c2ccc(NC(N)=[NH2+])cc21

emission maximum (in ClCCl): 538 nm
Structure (SMILES): COc1ccc(N(c2ccc(OC)cc2)c2ccc(-c3ccc4nc5ccccc5c(=O)n4c3)cc2)cc1

emission maximum (in C1CCCCC1): 396 nm
Structure (SMILES): C1=C(c2ccccc2)B(c2ccccc2)Nc2c1ccc1ccccc21

emission maximum (in CCO): 631 nm | emission maximum (in ClCCl): 605 nm | emission maximum (in O): 635 nm
Structure (SMILES): N#CC(C#N)=Cc1ccc(-c2cccc(-c3nc4ccccc4s3)c2O)o1

emission maximum (in CC#N): 432 nm
Structure (SMILES): N#Cc1cccc(-c2pc3ccccc3s2)c1 (stereo not given)

emission maximum (in CC#N): 409 nm | emission maximum (in CCCCCCCCCCCCCCCC): 381 nm | emission maximum (in CO): 439 nm | emission maximum (in ClC(Cl)Cl): 404 nm | emission maximum (in c1ccccc1): 393 nm
Structure (SMILES): CC(C)(C)C1Nc2ccccc2C(=O)N1Cc1ccccc1 (stereo not given)

emission maximum (in ClC(Cl)Cl): 635 nm
Structure (SMILES): CCCN1c2ccccc2Sc2cc(/C=C\c3cc(=O)oc4cc(NC(=O)OCC)ccc34)ccc21

emission maximum (in ClC(Cl)Cl): 648 nm
Structure (SMILES): Cc1c2c(c(C)c3ccccc13)-c1c-2ccc2nc3ccccc3nc12

Source: the Deep4Chem optical property database
